# Data reported in patent US6911432B2, “Drugs, foods or drinks with the use of algae-derived physiologically active substances” (priority 1997, dated 2005).
# Experiments:
# HL-60 cells = test: apoptosis-inducing assay, cell morphology under an optical microscope; type: cell-based, human
# Method: Human promyelocytic leukemia cell HL-60 (ATCC CCL-240) was incubated at 37° C. in RPMI 1640 medium (manufactured by Gibco) supplemented with 10% of fetal bovine serum (JRH Bioscience) which had been treated at 56° C. for 30 minutes, and suspended in the same medium at a concentration of 500 cells/90 μl. Each 90 μl portion of the suspension was distributed into each well of a 96 well plate (manufactured by Falcon). To the suspension in each well was added 10 μl of the above-mentioned acid decomposition solution, a 10-fold dilution of the solution or water, and incubated with 5% CO2 at 37° C. After 24 hour and 48 hour from the initiation of the incubation, the cell morphology was observed under an optical microscope. Then, according to the MTT method described in “Apoptosis Jikken Protocol” (Syuzyun-sha, Tanuma, Seiichi ed., pp. 156 (1994)), 5 mg/ml of 3-(4,5-dimethylthiazole-2-yl)-2,5-diphenyltetrazolium bromide (manufactured by Sigma) and 10 μl of phosphate buffered saline solution were added to the culture and the incubation was continued for additional 4 hours. Then, 100 μl of 2-propanol containing 0.04 N hydrochloric acid was added to the culture, and the mixture was thoroughly stirred. An absorbance at 590 nm was measured and the number of viable cells was calculated from the absorbance measured for each of the wells, which was compared each other.
# Each elution peak was fractionated, collected, evaporated to dryness under reduced pressure and then dissolved in 300 μl of water. Each fraction was sterilized by filtration and its 10 μl portion was placed in a well of a 96 well microtiter plate. Then, 90 μl of RPMI 1640 medium (manufactured by Nissui) containing 10% fetal bovine serum (manufactured by Gibco) and 5,000 HL-60 cells (ATCC CCL-240) was added thereto, followed by incubation at 37° C. for 48 hours with 5% CO2. The cell morphology was observed under an optical microscope. Then, 5 mg/ml 3-(4,5-dimethylthiazole-2-yl)-2,5-diphenyltetrazolium bromide and 10 μl of phosphate buffered saline solution were added thereto and the incubation was continued for additional 4 hours. To the culture was added 100 μl of 2-propanol containing 0.04 N hydrochloric acid and the resultant mixture was thoroughly stirred. The absorbance at 590 nm was measured to determine a cell proliferation rate.
# spleen lymphocytes = test: lymphocyte blastgenesis induced by Concanavalin A, 3H-thymidine uptake; type: cell-based, ddY mouse
# Method: A spleen was taken out from a ddY mouse (Nippon SLC; male, 7 weeks old), finely minced and suspended in RPMI-1640 medium (Gibco) containing 10% fetal bovine serum (HyClone) to obtain a single cell suspension. The cell suspension was seeded into a plastic Petri dish, incubated at 37° C. for 2 hours in a carbon dioxide incubator. Adhesive cells adhered to the Petri dish were removed and non-adhesive cells were used as spleen lymphocytes. 200 μl of 2×10^6 cells/ml spleen lymphocytes suspension was seeded into each well of 96 well microtiter plate. Agarobiose at varying concentration was added to the wells other than the control well. Furthermore, to all the wells was added 5 μg of Con A (Nacalai Tesque) and the plate was incubated at 37° C. for one day in a carbon dioxide incubator. After incubation, 1 μCi of ^3H-thymidine was added to each well and incubation was continued for additional one day. Then, its uptake into cells was measured using a liquid scintillation counter.
# FIG. 34 illustrates the relation between the agarobiose concentration and the ^3H-thymidine uptake in lymphocyte blastgenesis induced by Con A. The horizontal axis represents the agarobiose concentration and the vertical axis represents the ^3H-thymidine uptake (cpm). The open bar and the shaded bar represent the ^3H-thymidine uptake without stimulation and with stimulation by Con A, respectively. […]
# RAW 264.7 cells = test: NO production induced by LPS and IFN-γ after pre-incubation with sample; type: cell-based, mouse; conditions: 10 μl of 5,000 μM solution, pre-incubation 1, 2, 4 or 6 hours before stimulation
# Method: (4) RAW 264.7 cells were suspended in the Dulbecco's modified Eagle's medium described in Example 20-(1) at a concentration of 3×10^5 cells/ml, and 500 μl portions thereof were placed in respective wells of a 48 well microtiter plate. The plate was incubated for 37° C. for 10 hours in the presence of 5 % carbon dioxide. To the wells was added 10 μl of aqueous 5,000 μM agarobiose solution and incubated for additional 1, 2, 4 or 6 hours. Then, the culture supernatant was removed from the well and to each well were added 500 μl of fresh Dulbecco's modified Eagle's medium and then 10 μl of aqueous 2.5 μg/ml LPS and aqueous 800 U/ml interferon-Υ (IFN-Υ, sold by Cosmobio, GZM-MG-IFN) solution. The plate was incubated for 1 hour. Then, the culture supernatant was removed from the well and to each well was added 500 μl of fresh Dulbecco's modified Eagle's medium and the plate was incubated for additional 16 hours. The concentration of NO2^− produced by oxidation of NO in the medium was measured according to the same manner as that described in Example 20-(1). As control groups, a group to which neither LPS nor IFN-Υ was added and a group to which agarobiose was not added were provided. All the measurements were carried out in duplicate.
# [1] = tested on: Mouse melanoma cell B16BL6; test: inhibition of melanin production, absorbance at 400 nm; type: cell-based
# Method: Mouse melanoma cell B16BL6 suspended in RPMI-1640 containing 10% FBS was placed in a 6 well plate at a concentration of 5×10^4 cells/2 ml medium/well and incubated at 37° C. On the 2nd day, 100 μl of agarobiose solution (2 mg/ml to 0.2 mg/ml) was added thereto, and on the 7th day, the medium was changed and, at the same time, 100 μl of agarobiose solution (2 mg/ml to 0.2 mg/ml) was added thereto. On the 8th day, the cells were collected, DNA, RNA and protein were decomposed, and then the absorbance at 400 nm was measured to examine an activity of inhibiting melanin production.
# Namely, after removing the medium by suction, 0.3 ml of 0.25% trypsin dissolved in 20 mM EDTA solution was added to each well and the plate was incubated at 37° C. for 10 minutes. Then, 2 ml of the fresh medium was added to the well and the cells were suspended. The suspension was collected into a test tube. The medium was then removed by centrifugation and the cells were suspended in 2 ml of PBS and centrifuged again. After removing the supernatant, 30 μl of 50 mM sodium acetate buffer (pH 5.0) containing 5 mM manganese chloride and 1 μl of 70,000 U/ml DNase I (manufactured by Takara Shuzo) were added to the cells and thoroughly mixed. The mixture was incubated at 37° C. for 2 hours to decompose DNA. Then, 1 μl of 10 mg/ml ribonuclease A (manufactured by Sigma) was added to the mixture and the resultant mixture was incubated at 50° C. for 1 hour to decompose RNA. Finally, 100 mM Tris-hydrochloric acid buffer (pH 7.8) containing 100 μg/ml proteinase K (manufactured by Sigma), 0.1% Triton x and 10 mM EDTA was added thereto to make the total volume up to 200 μl for 2×10^6 cells, and the mixture was incubated at 37° C. for 16 hours and then the absorbance at 400 nm was measured.
smiles,measurement,setting,value
"OC[C@H]1O[C@@H](O[C@H]2[C@H]3OC[C@@H]2OC(O)[C@H]3O)[C@H](O)[C@@H](O)[C@H]1O (mixture of isomers) [Agarobiose, agarobiose]",apoptosis corpuscles under an optical microscope,HL-60 cells; 78 μg/ml,apoptosis corpuscles were observed
same,"apoptosis-inducing activity (apoptosis corpuscles, in words)",HL-60 cells; preparations and fractions,had both activities
same,inhibitory activity against lymphocyte blastgenesis induced by Con A (in words),spleen lymphocytes,dose-dependent inhibitory activity
same,inhibition of mouse lymphocyte proliferation stimulated by mitogen,"spleen lymphocytes; Con A, 100 μg/ml",almost completely inhibits
same,inhibition of NO production induced by LPS and IFN-γ (in words),RAW 264.7 cells,"the longer the pre-incubation time was, the higher the inhibition"
same,Absorbance at 400 nm mean,[1]; agarobiose 10 μg/ml,0.521
same,Absorbance at 400 nm mean,[1]; agarobiose 50 μg/ml,0.392
same,Absorbance at 400 nm mean,[1]; agarobiose 100 μg/ml,0.383
same,activity of inhibiting melanin production (in words),[1]; agarobiose at 50 and 100 μg/ml,recognized
